Measurements: PubChem BioAssay (NCI)
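Interpolation was linear, between the two tested concentrations surrounding the appropriate level; five concentrations were tested over 48 hours in 96-well plates. The concentration for 50% growth inhibition is given as GI50. Definition used: TGI = concentration required for complete inhibition of growth.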

Columns and labels:
Assay in all cases: inhibition of tumour cell growth, NCI panel, 48 h
HS 578T breast = tested on: HS 578T breast
LOX IMVI melanoma = tested on: LOX IMVI melanoma
CAKI-1 renal = tested on: CAKI-1 renal
CCRF-CEM leukemia = tested on: CCRF-CEM leukemia
SK-MEL-2 melanoma = tested on: SK-MEL-2 melanoma
SF-539 CNS = tested on: SF-539 CNS
NCI-H226 lung = tested on: NCI-H226 lung
UACC-62 melanoma = tested on: UACC-62 melanoma
SNB-19 CNS = tested on: SNB-19 CNS
EKVX NSCLC = tested on: EKVX NSCLC

Structure (SMILES)	GI50 (HS 578T breast) [µM]	TGI (HS 578T breast) [µM]	GI50 (LOX IMVI melanoma) [µM]	TGI (LOX IMVI melanoma) [µM]	GI50 (CAKI-1 renal) [µM]	TGI (CAKI-1 renal) [µM]	GI50 (CCRF-CEM leukemia) [µM]	TGI (CCRF-CEM leukemia) [µM]	GI50 (SK-MEL-2 melanoma) [µM]	TGI (SK-MEL-2 melanoma) [µM]	GI50 (SF-539 CNS) [µM]	TGI (SF-539 CNS) [µM]	GI50 (NCI-H226 lung) [µM]	TGI (NCI-H226 lung) [µM]	GI50 (UACC-62 melanoma) [µM]	TGI (UACC-62 melanoma) [µM]	GI50 (SNB-19 CNS) [µM]	TGI (SNB-19 CNS) [µM]	TGI (EKVX NSCLC) [µM]	GI50 (EKVX NSCLC) [µM]
O=C(CN1CCN(c2cc3c(cc2F)c(=O)c(C(=O)O)cn3C2CC2)CC1)Nc1ccc(C(=O)/C=C/c2ccccc2)cc1	4.99	> 100	2.32	> 100	1.76	5.32	4.09	> 100	2.94	11.3	3.6	> 100	6.83	> 100	3.71	> 100	3.05	> 100		
O=C(O)CNCc1c2ccccc2nc2ccccc12		> 100		> 100		> 90.8		41.2		> 100		87.2		> 100		> 100		> 100	> 100	
Fc1ccc(-c2ncn(C3CCNCC3)c2-c2ccnc(Oc3ccc(Oc4ccccc4)cc3)n2)cc1	1.73	6.89	3.15	7.09	3.92	7.74	5.22	10.3	5.03	9.06	4.2	7.92	3.6	7.53	4.29	7.78	4.25	7.92	7.74	3.87
COc1ccc(C(=O)C(CN(C)C)c2ccccc2)cc1 (centres undefined)	1.95	6.17	1.73	3.8	2.08	7.82	1.84	11.9	3.09	7.97	5.07	16.6	2.67	8.59	2.81	8.22	11.1	23.1	34.1	14.1
CCN(Cc1cccc(C)c1)c1ccc(CO)c(Cl)c1	15.2	37.7	13.2	26.6	1.31	14.7	15.6	39.8	5.77	21.8	17.3	32.4	0.121	0.252	0.158	1.11	15.8	41	30	14.6
COc1ccc(C2C3=C(COC3=O)N(CCO)c3cc4c(cc32)CCC4)cc1OC (centres undefined)	0.454	> 15	1.53	> 50	0.858	> 50	1.73	> 50			0.496	6.43	> 10.7	> 50	0.318	> 50	2.16	> 50	> 50	2.95
C=C(C)[C@@H]1CC[C@@H]2C(=CC[C@]3(C)C([C@H](C)CC/C=C(/C)C(=O)O)CC[C@@]23C)[C@@]1(C)CCC(=O)O (some centres undefined)		> 100		37.8		68.4		53.7		45.1		89		83.1		39.4		> 100	> 100	
CCOC(=O)Nc1ccc2nc(Sc3ccc(Cl)cc3)sc2c1	7.25	97.9	4.45	25.3	1.95	42	4	> 100	2.56	26.4	2.92	22.1	7.9	76.3	1.6	48.3	7.31	> 100	> 82.6	8.28
O=C(N/N=C\c1cc(Br)cc(Br)c1O)N/N=C/c1cc(Br)cc(Br)c1O	19.8	51.2	2.57	12.1	3.29	15.9	0.534	4.48	11.2	24	1.73	11	2.23	9.82	1.8	10.2	3.65	17.7	17.8	4.09
O=C(c1nc2ccccc2[nH]1)C1C(c2cccc([N+](=O)[O-])c2)C2CC3CCCCC3N2[C@@]12C(=O)Nc1cc(Cl)ccc12 (some centres undefined)	1.63	4.41	1.55	2.96	1.43	3.94	3.11	> 100			1.69	3.19	1.59	3.48	1.5	3.2	2.04	6.43	6.31	2.02
